According to patent US8293917B2, “Pyrazole compounds as CCR1 antagonists” (Boehringer Ingelheim International GmbH, priority 2008, dated 2012):
pIC50: −log10 of the molar value. “And” between values parts separate entries of the source, which are not always exact repeats. Equal entries are not always repeated.

Molecular target: T1, CCR1 (Homo sapiens, UniProt P32246)
T1 construct: host or cells: non-adherent cells
T1 sequence (P32246 1-355): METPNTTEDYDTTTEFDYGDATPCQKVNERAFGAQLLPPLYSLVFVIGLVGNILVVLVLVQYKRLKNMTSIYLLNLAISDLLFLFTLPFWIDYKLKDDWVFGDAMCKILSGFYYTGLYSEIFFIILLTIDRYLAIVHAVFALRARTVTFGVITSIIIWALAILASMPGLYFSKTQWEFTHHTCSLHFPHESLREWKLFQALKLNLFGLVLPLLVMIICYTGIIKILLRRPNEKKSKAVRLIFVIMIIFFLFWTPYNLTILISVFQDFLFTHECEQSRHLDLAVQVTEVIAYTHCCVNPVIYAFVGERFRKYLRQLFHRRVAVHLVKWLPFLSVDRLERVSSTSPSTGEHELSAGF
Assay: functional cellular assay measuring calcium flux in response to MIP1α in CCR1-transfected cells (Method A or Method B)
Format: cell-based
Conditions: cells stably expressing recombinant CCR1 and G-alpha-16; MIP-1alpha added at EC80; method (A: FLIPR TETRA, B: FDSS6000) not stated per compound
Experimental: Compounds are assessed for the ability to block the interaction of CCR1 and its ligands in a functional cellular assay measuring calcium flux in response to MIP1α in CCR1-transfected cells.
Method A: Non-adherent cells purchased from Chemicon Corporation (HTS005C), stably expressing recombinant CCR1 and G-alpha-16 are grown in RPMI 1640 medium (Mediatech 10-080-CM) supplemented with 10% heat-inactivated FBS, 0.4 mg/mL Geneticin and penicillin/streptomycin. On the day of the assay, the cells are transferred to a beaker and dye-loaded in bulk using a Fluo-4 NW Calcium Assay Kit with probenecid (Invitrogen F36205) at 0.8E6 cells/mL for 1 hour at room temperature. After 1 hour, they are seeded in a 384-well tissue culture-treated plate at a density of 20,000 cells/well. Appropriately diluted test compound is added to the well to achieve a top concentration of 3,000 nM (diluted 3-fold with 10 doses total). The final concentration of DMSO is 1%. The buffer is HBSS (Invitrogen 14025) with 20 mM HEPES at pH 7.4. The cells are allowed to incubate 1 hour in the dark at room temperature. The plates are transferred to the FLIPR TETRA where MIP-1alpha in 1% BSA is added at the EC80 final concentration. Wells +/−MIP-1alpha containing diluted DMSO instead of compound serve as the controls. Intracellular calcium flux is recorded on the FLIPR TETRA, using excitation at 470/495 nm and emission at 515/575 nm. Data are analyzed using Activity Base software.
Method B: Non-adherent cells purchased from Chemicon Corporation (HTS005C), stably expressing recombinant CCR1 and G-alpha-16 are grown in RPMI 1640 medium (Mediatech 10-080-CM) supplemented with 10% FBS, 0.4 mg/mL Geneticin and penicillin/streptomycin. On the day of the assay, the cells are loaded with Calcium 4 dye (Molecular Devices R7448) with Probenecid (Invitrogen P346400) at 8E5 cells/mL for 1 hour at room temperature. After 1 hour, they are seeded in a 384-well tissue culture-treated plate at a density of 20,000 cells/well. Appropriately diluted test compound is added to the well to achieve a top concentration of 3,000 nM (diluted 4-fold with 10 doses total). The final concentration of DMSO is 1%. The buffer is HBSS (Invitrogen 14025) with 20 mM HEPES at pH 7.4. The cells incubate 30 minutes at 37 C and then 30 minutes at room temperature. The plates are transferred to the HAMAMATSU FDSS6000 where MIP-1alpha in 1% BSA is added at the EC80 final concentration. All plates must be read within 4 hours of the start of dye-loading. Wells +/−MIP-1alpha containing diluted DMSO instead of compound serve as the controls. Data are analyzed using Activity Base software.

| Structure (SMILES) | pIC50 |
| --- | --- |
| CCC[C@H](NC(=O)c1cnn(-c2ccc(Cl)cc2)c1CO)c1cccc(Br)c1 [1-(4-Chloro-phenyl)-5-hydroxymethyl-1H-pyrazole-4-carboxylic acid [(S)-1-(3-bromo-phenyl)-butyl]-amide] | 7.80 |
| CCCC(NC(=O)c1cnn(-c2ccc(Cl)c(Cl)c2)c1C)c1ccnc(S(C)(=O)=O)c1 (centres unmarked) [1-(3,4-Dichloro-phenyl)-5-methyl-1H-pyrazole-4-carboxylic acid [1-(2-methanesulfonyl-pyridin-4-yl)-butyl]-amide] | 9.52 |
| CCCC(NC(=O)c1cnn(-c2ccc(Cl)c(Cl)c2)c1C)c1ccnc(Br)c1 (centres unmarked) [1-(3,4-Dichloro-phenyl)-5-methyl-1H-pyrazole-4-carboxylic acid [1-(2-bromo-pyridin-4-yl)-butyl]-amide] | 9.22 |
| CCCC(NC(=O)c1cnn(-c2ccc(Cl)cc2)c1C)c1ccnc(S(=O)(=O)N(C)C)c1 (centres unmarked) [1-(4-Chloro-phenyl)-5-methyl-1H-pyrazole-4-carboxylic acid [1-(2-dimethylsulfamoyl-pyridin-4-yl)-butyl]-amide] | 8.35 |
| CCCC(NC(=O)c1cnn(-c2ccc(Cl)cc2)c1C)c1ccc(S(=O)(=O)C2CC2)nc1 (centres unmarked) [1-(4-Chloro-phenyl)-5-methyl-1H-pyrazole-4-carboxylic acid [1-(6-cyclopropanesulfonyl-pyridin-3-yl)-butyl]-amide] | 7.28 |
| CCCC(NC(=O)c1cnn(-c2ccc(Cl)cc2)c1C)c1ccnc(S(=O)(=O)C2CC2)c1 (centres unmarked) [1-(4-Chloro-phenyl)-5-methyl-1H-pyrazole-4-carboxylic acid [1-(2-cyclopropanesulfonyl-pyridin-4-yl)-butyl]-amide] | 7.92 |
| CCCC(NC(=O)c1cnn(-c2ccc(Cl)cc2)c1C)c1ccnc(S(C)(=O)=O)c1 (centres unmarked) [1-(4-Chloro-phenyl)-5-methyl-1H-pyrazole-4-carboxylic acid [1-(2-methanesulfonyl-pyridin-4-yl)-butyl]-amide] | 8.64 |
| CCCC(NC(=O)c1cnn(-c2ccc(Cl)cc2)c1C)c1ccnc(Br)c1 (centres unmarked) [1-(4-Chloro-phenyl)-5-methyl-1H-pyrazole-4-carboxylic acid [1-(2-bromo-pyridin-4-yl)-butyl]-amide] | 8.96 |
| CCCC(NC(=O)c1cnn(-c2ccc(Cl)cc2)c1C)c1ccc(S(=O)(=O)NC)nc1 (centres unmarked) [1-(4-Chloro-phenyl)-5-methyl-1H-pyrazole-4-carboxylic acid [1-(6-methylsulfamoyl-pyridin-3-yl)-butyl]-amide] | 8.20 |
| CCC[C@H](NC(=O)c1cnn(-c2ccc(Cl)cc2)c1C)c1ccc(F)c(C(F)(F)F)c1 [1-(4-Chloro-phenyl)-5-methyl-1H-pyrazole-4-carboxylic acid [(S)-1-(4-fluoro-3-trifluoromethyl-phenyl)-butyl]-amide] | 8.00 |
| CCCC(NC(=O)c1cnn(-c2ccc(F)c(Cl)c2)c1C)c1cncc(S(C)(=O)=O)c1 (centres unmarked) [1-(3-Chloro-4-fluoro-phenyl)-5-methyl-1H-pyrazole-4-carboxylic acid [1-(5-methanesulfonyl-pyridin-3-yl)-butyl]-amide] | 8.23 |
| CCCC(NC(=O)c1cnn(-c2ccc(Cl)cc2)c1C)c1ccnc(S(N)(=O)=O)c1 (centres unmarked) [1-(4-Chloro-phenyl)-5-methyl-1H-pyrazole-4-carboxylic acid [1-(2-sulfamoyl-pyridin-4-yl)-butyl]-amide] | 7.29 |
| CCC[C@H](NC(=O)c1cnn(-c2ccc(Cl)cc2)c1CNC)c1cccc(C(F)(F)F)c1 [1-(4-Chloro-phenyl)-5-methylaminomethyl-1H-pyrazole-4-carboxylic acid [(S)-1-(3-trifluoromethyl-phenyl)-butyl]-amide] | 7.01 |
| CCCC(NC(=O)c1cnn(-c2ccc(Cl)c(Cl)c2)c1C)c1ccc(S(C)(=O)=O)nc1 (centres unmarked) [1-(3,4-Dichloro-phenyl)-5-methyl-1H-pyrazole-4-carboxylic acid [1-(6-methanesulfonyl-pyridin-3-yl)-butyl]-amide] | 8.28 |
| CCCC(NC(=O)c1cnn(-c2ccc(Cl)c(Cl)c2)c1C)c1cncc(S(C)(=O)=O)c1 (centres unmarked) [1-(3,4-Dichloro-phenyl)-5-methyl-1H-pyrazole-4-carboxylic acid [1-(5-methanesulfonyl-pyridin-3-yl)-butyl]-amide] | 9.00 |
| CCCC(NC(=O)c1cnn(-c2ccc(Cl)cc2)c1C)c1cncc(S(=O)(=O)C(C)C)c1 (centres unmarked) [1-(4-Chloro-phenyl)-5-methyl-1H-pyrazole-4-carboxylic acid {1-[5-(propane-2-sulfonyl)-pyridin-3-yl]-butyl}-amide] | 7.14 |
| CC[C@H](NC(=O)c1cnn(-c2ccc(Cl)cc2)c1C)c1ccnc(S(=O)(=O)NC)c1 [1-(4-Chloro-phenyl)-5-methyl-1H-pyrazole-4-carboxylic acid [(S)-1-(2-methylsulfamoyl-pyridin-4-yl)-propyl]-amide] | 7.72 |
| CCC[C@H](NC(=O)c1cnn(-c2ccc(Cl)cc2)c1C)c1ccc(S(C)(=O)=O)nc1 (stereo in doubt) [1-(4-Chloro-phenyl)-5-methyl-1H-pyrazole-4-carboxylic acid [1-(6-methanesulfonyl-pyridin-3-yl)-butyl]-amide] | 7.46 |
| CCCC(NC(=O)c1cnn(-c2ccc(Cl)c(F)c2)c1C)c1ccc(S(C)(=O)=O)nc1 (centres unmarked) [1-(4-Chloro-3-fluoro-phenyl)-5-methyl-1H-pyrazole-4-carboxylic acid [1-(6-methanesulfonyl-pyridin-3-yl)-butyl]-amide] | 7.04 |
| Cc1c(C(=O)N[C@@H](C)c2ccc(F)c(C(F)(F)F)c2)cnn1-c1ccc(Cl)c(Cl)c1 [1-(3,4-Dichloro-phenyl)-5-methyl-1H-pyrazole-4-carboxylic acid [(S)-1-(4-fluoro-3-trifluoromethyl-phenyl)-ethyl]-amide] | 7.55 |
| CCCC(NC(=O)c1cnn(-c2ccc(Cl)cc2)c1C)c1ccc(S(=O)(=O)NC2CCOCC2)nc1 (centres unmarked) [1-(4-Chloro-phenyl)-5-methyl-1H-pyrazole-4-carboxylic acid {1-[6-(tetrahydro-pyran-4-ylsulfamoyl)-pyridin-3-yl]-butyl}-amide] | 7.39 |
| CCCC(NC(=O)c1cnn(-c2ccc(Cl)cc2)c1C)c1ccc(S(=O)(=O)N(C)C)nc1 (centres unmarked) [1-(4-Chloro-phenyl)-5-methyl-1H-pyrazole-4-carboxylic acid [1-(6-dimethylsulfamoyl-pyridin-3-yl)-butyl]-amide] | 7.92 |
| CC[C@H](NC(=O)c1cnn(-c2ccc(Cl)cc2)c1C)c1cnc(S(C)(=O)=O)s1 [1-(4-Chloro-phenyl)-5-methyl-1H-pyrazole-4-carboxylic acid [(S)-1-(2-methanesulfonyl-thiazol-5-yl)-propyl]-amide] | 7.24 |
| CCCC(NC(=O)c1cnn(-c2ccc(Cl)cc2)c1C)c1cncc(S(N)(=O)=O)c1 (centres unmarked) [1-(4-Chloro-phenyl)-5-methyl-1H-pyrazole-4-carboxylic acid [1-(5-sulfamoyl-pyridin-3-yl)-butyl]-amide] | 7.51 and 7.46 |
| CCCC(NC(=O)c1cnn(-c2ccc(Br)cc2)c1C)c1cncc(S(C)(=O)=O)c1 (centres unmarked) [1-(4-Bromo-phenyl)-5-methyl-1H-pyrazole-4-carboxylic acid [1-(5-methanesulfonyl-pyridin-3-yl)-butyl]-amide] | 8.03 |
| CCCC(NC(=O)c1cnn(-c2ccc(Cl)cc2)c1C)c1ccc(S(=O)(=O)CC)nc1 (centres unmarked) [1-(4-Chloro-phenyl)-5-methyl-1H-pyrazole-4-carboxylic acid [1-(6-ethanesulfonyl-pyridin-3-yl)-butyl]-amide] | 7.22 |
